From patent EP4173621A1 (priority 2021, dated 2023) come the findings set out here.

Like-named read-outs stand apart in the source and are kept apart here.

The subject of series [1] is lentiviral vectors pseudotyped with the SARS-CoV-2 Spike protein (CoV-2 LV). As to the kind of experiment: microbe, parasite or virus in culture. Particulars: Severe acute respiratory syndrome coronavirus 2; 293-ACE2 cells (Table 1). The class given is cell-based.
A further series deals with VSVg pseudotyped LV. The class given is cell-based.
Series [2] addresses SARS-CoV-2 S-RBD(His)6 and human ACE2-Biot interaction (Severe acute respiratory syndrome coronavirus 2, UniProt P0DTC2). As to the kind of experiment: AlphaLISA competition assay of the S-RBD/ACE2 interaction. The class given is binding, SARS-CoV-2 / human. Particulars: at 25 µM of drug; 3 nM of each protein. (In Alpha technology, singlet oxygen from a donor bead excites a nearby acceptor bead.)

For series [3], the system named is SARS-CoV-2 reference strain. In words: microbe, parasite or virus in culture. In kind it is cell-based.
In series [4] the test system is SARS-CoV-2 reference strain. As to the kind of experiment: microbe, parasite or virus in culture. In kind it is cell-based. Particulars: Severe acute respiratory syndrome coronavirus 2, Calu-3.
The next series has as its system SARS-CoV-2. As to the kind of experiment: Antiviral activity summarised over all the cell lines. In kind it is cell-based.
In another series the test system is HEK293T-ACE2. Particulars: HEK-293T cell line, within the 0-50µM range.
In the next series the test system is A549-ACE2. Particulars: A549 cell line, within the 0-50µM range.
Another series deals with Calu3. Particulars: Calu3 cell line, within the 0-50µM range.
In a further series the test system is Caco2. Particulars: Caco2 cell line, within the 0-50µM range.
A short description of series [5]: in vitro. Particulars: human.
A short description of series [6]: in vitro. Particulars: human. This is another data set of the same source.
A short description of series [7]: in vitro. Particulars: human. The source holds these as a separate data set.

`C(=C\c1nc2ccccc2s1)/c1cccc(N(c2cccc(/C=C/c3nc4ccccc4s3)c2)c2cccc(/C=C/c3nc4ccccc4s3)c2)c1` [TP m 3BTZ compound, Tris {3-(2-(benzothiazole-2-yl)vinylphenyl}amine)]: the IC50 is 1 µM in series [1]; 2.5 µM in [3] (Severe acute respiratory syndrome coronavirus 2, A549-ACE2, A 549-ACE2 cells (Table 1)); 5 µM in series [4] (Calu3 cells (Table 1), read-out: IC50); approximately 1 µM in series [4] (Calu3 cells, SARS-CoV-2 reference strain, 24 hours, read-out: concentration leading to 50% inhibition of the viral replication); 0.25 to 5 µM with SARS-CoV-2 (Severe acute respiratory syndrome coronavirus 2, among all the cell lines). In addition, the “effect on the VSVg LVs infectivity” value with VSVg pseudotyped LV is recorded as “without significant effect”. The “inhibition of the formation of the RBD/ACE2 complex (AlphaLISA)” value in [2] is listed as 50%. Also, the “inhibition of the viral replication” value in series [3] (A549-ACE2 cells, SARS-CoV-2 reference strain, 24 hours) was “induced an inhibition of the viral replication”. Besides, in the series with SARS-CoV-2 (among all the cell lines), the selectivity indexes is more than 10. In addition, the “selectivity index (SI)” value in the series with SARS-CoV-2 (based on apparent IC50 and CC50 in the different cell lines) is listed as “higher than 50”. Further, the “cytotoxicity (MTT assay)” value in the series on HEK293T-ACE2, in the series on A549-ACE2, in the series on Calu3 and with Caco2 was “no or poor cytoxoxicity” throughout. The CC50 in “in vitro [5]”, in “in vitro [6]” and in the series “in vitro [7]” was more than 50 µM in each case.
